{
  "source": "patent US10883992B2",
  "about": "“Universal kinase substrates and methods of use thereof” (Regents of the University of Minnesota, priority 2018, dated 2021)",
  "type_in_all_cases": "biochemical",
  "key": {"[1]": {"system": "panel of 15 PTKs", "assay": "Universal kinase substrate screen of the pilot library, [γ-33P]ATP incorporation", "settings": "biotinylated peptides 10 μM; for phosphorylation by the panel of PTKs: 50 μM ATP, 30° C., 30 min, 15 PTKs; for average phosphorylation across the kinase panel: averaged over 15 PTKs (FIG. 1B)", "description": "This pilot library was then subjected to an initial screen to test their phosphorylation by a panel of 15 PTKs that included 12 non-receptor TKs (representing all 10 NRTK families) and 3 receptor TKs (representing 3 RTK families). Pilot peptides were assayed alongside several previously reported substrates that were designed to be specific to individual kinases. Conversion to product was monitored via incorporation of phosphate from [γ-^33P] radiolabeled adenosine triphosphate (ATP). These intensities were normalized to background and visualized as a heat map in FIG. 1. […] By contrast, as previously reported, peptides that had been designed to specifically target individual kinases had more restricted reactivity.\n(§1) Biotinylated peptides (10 μM final concentration) were arrayed in a 384-well plate in 18 μL reaction buffer (50 mM HEPES, pH 7.5, 150 mM NaCl, 10 mM MgCl2, 1 mM DTT, 0.1% v/v Tween-20). Reactions were initiated by adding […] kinase (to 3-9 ng/μL) and [γ-^33P] ATP (to 50 μM, 0.025 μCi/μL) in reaction buffer. Plates were sealed and incubated at 30° C. for 30 min, and then 2 μL aliquots were transferred to streptavidin membrane (Promega SAM2 biotin capture membrane) using a pin-tool. […] Incorporation of radiolabel was quantified by phosphor imaging using QuantityOne software (Bio-Rad). After background correction, data were normalized such that the peptide with the greatest signal was 100%. Normalized data from at least two separate experiments were averaged and converted to heatmaps using Excel (Microsoft)."}, "[2]": {"biological_target": "T1, BTK (Homo sapiens, UniProt Q06187)", "T1 construct": "GST; made in house; host or cells: HEK293T cells", "T1 sequence (Q06187 whole entry, species assumed, the tested form may be a part)": "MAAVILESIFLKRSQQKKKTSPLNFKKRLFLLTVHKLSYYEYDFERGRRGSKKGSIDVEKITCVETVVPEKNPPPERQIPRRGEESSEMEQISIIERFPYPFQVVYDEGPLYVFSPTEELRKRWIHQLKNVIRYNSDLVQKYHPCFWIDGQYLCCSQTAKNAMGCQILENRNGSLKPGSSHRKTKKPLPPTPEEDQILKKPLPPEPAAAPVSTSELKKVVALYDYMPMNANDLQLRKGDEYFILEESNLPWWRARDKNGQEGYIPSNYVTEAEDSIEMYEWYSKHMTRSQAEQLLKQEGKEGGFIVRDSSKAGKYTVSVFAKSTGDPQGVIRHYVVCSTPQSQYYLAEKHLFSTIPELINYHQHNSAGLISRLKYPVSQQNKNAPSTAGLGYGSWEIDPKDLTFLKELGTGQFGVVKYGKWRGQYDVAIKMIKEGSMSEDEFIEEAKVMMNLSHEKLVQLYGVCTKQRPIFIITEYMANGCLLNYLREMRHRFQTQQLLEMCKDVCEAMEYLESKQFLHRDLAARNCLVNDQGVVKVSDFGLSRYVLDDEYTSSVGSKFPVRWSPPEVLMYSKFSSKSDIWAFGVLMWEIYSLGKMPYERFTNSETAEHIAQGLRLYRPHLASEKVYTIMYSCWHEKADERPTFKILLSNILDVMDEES", "assay": "Michaelis-Menten kinetic analysis of substrate peptides, [γ-33P]ATP radiolabel incorporation", "settings": "for kcat: mean ± sem of fits", "text": "(§2) The mammalian expression vector to produce the intracellular portion of human FLT3 fused to GST (GST-FLT3^564-993) was generated by PCR amplifying the encoding sequence and subcloning into the BamHI and NotI sites of pEBG-2T. Mammalian expression vectors to produce BTK, SRC and SYK as GST fusion proteins were previously described. GST-tagged kinases were expressed in HEK293T cells and purified by affinity chromatography using glutathione Sepharose 4B as described (Deng, et al., Journal of Proteome Research 2014, 13, 4339). His6-EGFR^672-998 (“His6” disclosed SEQ ID NO: 25) and His6-ALK^1090-1416 (“His6” disclosed SEQ ID NO: 25) were expressed and purified from Sf9 insect cells as described (Park, et al., Biochemical Journal 2012, 448, 417; Bresler, et al., Science Translational Medicine 2011, 3, 108ra114). Human ABL was purchased from Life Technologies.\nas §1\n(§3) Final kinase concentrations were as follows: 0.3 ng/μL for ABL, BTK, SRC and SYK; 1.5 ng/μL for FLT3; 2.7 ng/μL for ALK and EGFR. At various incubation times (10, 20 and 30 min), 2 μL aliquots were transferred using a pin tool to P81 phosphocellulose paper (Reaction Biology), which was washed three times in 75 mM H3PO4, briefly washed in acetone and allowed to dry before exposing to a phosphor screen. Incorporation of radiolabel into peptides was quantified as above. After background correction, initial rates of reaction were determined by linear regression and fit to the Michaelis-Menten equation using Prism (GraphPad). […] Reported kinetic parameters are the average of three separate experiments except for FLT3 (two experiments)."}, "[3]": {"biological_target": "T2, Syk (Homo sapiens, UniProt P43405)", "T2 construct": "GST; made in house; host or cells: HEK293T cells", "assay": "Michaelis-Menten kinetic analysis of substrate peptides, [γ-33P]ATP radiolabel incorporation", "text": "as §2, §1, §3"}, "[4]": {"biological_target": "T3, FLT3 (GST-FLT3 564-993) (Homo sapiens, UniProt P36888)", "T3 construct": "human FLT3 fused to GST (GST-FLT3^564-993); GST (N); made in house; host or cells: HEK293T cells", "T3 sequence (P36888 564-993)": "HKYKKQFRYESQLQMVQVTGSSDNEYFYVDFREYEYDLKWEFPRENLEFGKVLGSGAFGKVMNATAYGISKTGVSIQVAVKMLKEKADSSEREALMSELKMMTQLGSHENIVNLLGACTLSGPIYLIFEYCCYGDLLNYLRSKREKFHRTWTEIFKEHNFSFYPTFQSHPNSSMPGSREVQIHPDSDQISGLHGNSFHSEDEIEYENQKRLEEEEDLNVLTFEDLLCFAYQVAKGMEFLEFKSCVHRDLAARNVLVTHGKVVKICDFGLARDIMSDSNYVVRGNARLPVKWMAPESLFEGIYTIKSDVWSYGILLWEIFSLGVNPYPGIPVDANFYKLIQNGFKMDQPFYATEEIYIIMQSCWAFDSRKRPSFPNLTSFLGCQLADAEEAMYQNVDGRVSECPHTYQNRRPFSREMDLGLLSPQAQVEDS", "assay": "Michaelis-Menten kinetic analysis of substrate peptides, [γ-33P]ATP radiolabel incorporation", "settings": "for kcat: mean ± sem of fits", "text": "as §2, §1, §3"}, "[5]": {"biological_target": "T4, Src (Homo sapiens, UniProt P12931)", "T4 construct": "GST; made in house; host or cells: HEK293T cells", "assay": "Michaelis-Menten kinetic analysis of substrate peptides, [γ-33P]ATP radiolabel incorporation", "settings": "for kcat: lower limit extrapolated from kcat/Km", "text": "as §2, §1, §3"}, "[6]": {"biological_target": "T5, Abl (Homo sapiens, UniProt P00519)", "T5 construct": "purchased Life Technologies", "T5 sequence (P00519 whole entry)": "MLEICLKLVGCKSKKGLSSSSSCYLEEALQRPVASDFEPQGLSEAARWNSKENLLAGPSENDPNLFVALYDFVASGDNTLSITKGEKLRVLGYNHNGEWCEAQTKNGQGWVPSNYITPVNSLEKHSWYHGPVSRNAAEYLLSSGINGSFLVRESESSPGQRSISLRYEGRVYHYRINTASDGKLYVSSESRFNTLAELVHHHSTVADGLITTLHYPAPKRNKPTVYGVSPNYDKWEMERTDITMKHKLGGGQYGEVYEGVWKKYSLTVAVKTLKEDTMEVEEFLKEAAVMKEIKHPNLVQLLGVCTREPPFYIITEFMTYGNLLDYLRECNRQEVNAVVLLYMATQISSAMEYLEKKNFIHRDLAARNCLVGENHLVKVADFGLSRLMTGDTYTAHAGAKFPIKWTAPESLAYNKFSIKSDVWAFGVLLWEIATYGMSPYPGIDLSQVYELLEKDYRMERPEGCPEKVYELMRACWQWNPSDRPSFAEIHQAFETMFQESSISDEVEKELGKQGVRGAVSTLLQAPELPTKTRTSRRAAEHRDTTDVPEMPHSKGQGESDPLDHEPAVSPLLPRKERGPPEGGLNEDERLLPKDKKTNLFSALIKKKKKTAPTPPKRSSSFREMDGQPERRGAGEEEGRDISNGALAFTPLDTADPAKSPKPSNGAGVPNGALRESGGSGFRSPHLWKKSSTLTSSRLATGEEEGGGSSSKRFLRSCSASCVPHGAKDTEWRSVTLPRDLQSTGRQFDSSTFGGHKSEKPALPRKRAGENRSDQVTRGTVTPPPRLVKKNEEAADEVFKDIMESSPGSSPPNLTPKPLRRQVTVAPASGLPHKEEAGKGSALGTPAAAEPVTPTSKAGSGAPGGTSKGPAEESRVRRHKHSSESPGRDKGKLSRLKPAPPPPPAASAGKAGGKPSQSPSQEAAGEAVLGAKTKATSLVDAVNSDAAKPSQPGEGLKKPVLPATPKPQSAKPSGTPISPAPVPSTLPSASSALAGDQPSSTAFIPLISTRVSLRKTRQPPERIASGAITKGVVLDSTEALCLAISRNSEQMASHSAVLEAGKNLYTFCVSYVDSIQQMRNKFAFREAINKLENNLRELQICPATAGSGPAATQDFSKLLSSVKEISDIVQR", "assay": "Michaelis-Menten kinetic analysis of substrate peptides, [γ-33P]ATP radiolabel incorporation", "text": "as §2, §1, §3"}, "[7]": {"biological_target": "T6, EGFR (His6-EGFR 672-998) (Homo sapiens, UniProt P00533)", "T6 construct": "His6-EGFR^672-998; His6 (N); made in house; host or cells: Sf9 insect cells", "assay": "Michaelis-Menten kinetic analysis of substrate peptides, [γ-33P]ATP radiolabel incorporation", "settings": "for kcat: lower limit extrapolated from kcat/Km", "text": "as §2, §1, §3"}, "[8]": {"biological_target": "T7, ALK (His6-ALK 1090-1416) (Homo sapiens, UniProt Q9UM73)", "T7 construct": "His6-ALK^1090-1416; His6 (N); made in house; host or cells: Sf9 insect cells", "T7 sequence (Q9UM73 1090-1416)": "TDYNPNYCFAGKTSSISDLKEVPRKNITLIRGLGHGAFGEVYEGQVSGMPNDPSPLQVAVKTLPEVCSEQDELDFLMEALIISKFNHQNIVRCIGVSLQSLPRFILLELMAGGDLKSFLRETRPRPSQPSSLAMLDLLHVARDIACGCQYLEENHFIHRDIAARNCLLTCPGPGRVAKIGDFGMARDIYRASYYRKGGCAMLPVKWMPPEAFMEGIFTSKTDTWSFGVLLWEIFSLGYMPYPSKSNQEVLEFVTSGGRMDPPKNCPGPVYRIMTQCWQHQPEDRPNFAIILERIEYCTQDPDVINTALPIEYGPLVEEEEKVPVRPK", "assay": "Michaelis-Menten kinetic analysis of substrate peptides, [γ-33P]ATP radiolabel incorporation", "settings": "for kcat: lower limit extrapolated from kcat/Km", "text": "as §2, §1, §3"}, "[9]": {"settings": "peptide 2 relative to peptide 5"}, "[10]": {"settings": "lower limit extrapolated from kcat/Km"}},
  "note": "“Also recorded” adds a separate entry of the source. Ends that are not written are not given here. Peptide text beside a SMILES is read from it. * marks the point of attachment. Biotin = O=C1N[C@H]2[C@H](CS[C@H]2CCCCC(=O)*)N1",
  "data": [
    {"molecule": "CC[C@H](C)[C@H](NC(=O)[C@@H]1CCCN1C(=O)[C@H](CC(=O)O)NC(=O)[C@@H](N)CCC(=O)O)C(=O)N[C@@H](Cc1ccc(O)cc1)C(=O)N[C@H](C(=O)N[C@H](C(=O)N[C@@H](CC(C)C)C(=O)N[C@@H](CCC(=O)O)C(=O)NCC(=O)NCC(=O)N[C@@H](CCCCNC(=O)CCCC[C@@H]1SC[C@@H]2NC(=O)N[C@@H]21)C(=O)NCC(=O)NCC(N)=O)[C@@H](C)O)C(C)C", "note": "[Peptide 2] (H-EDPIYVTLEGGK(Biotin)GG-NH2)", "values": [
      {"measurement": "phosphorylation by the panel of PTKs", "setting": "[1]", "result": "phosphorylated by every PTK tested"},
      {"measurement": "average phosphorylation across the kinase panel", "setting": "[1]", "result": "highest average rate of phosphorylation across the entire panel of kinases; also recorded: highest phosphorylation averaged across the kinase panel"},
      {"measurement": "kcat", "setting": "[2]", "result": "0.061 ± 0.019", "unit": "s⁻¹"},
      {"measurement": "2/5 kcat/Km ratio", "setting": "[2]; [9]", "result": "0.31 ± 0.01"},
      {"measurement": "2/5 kcat/Km ratio", "setting": "[3]; [9]", "result": "1.8 ± 0.2"},
      {"measurement": "kcat", "setting": "[4]", "result": "0.013 ± 0.004", "unit": "s⁻¹"},
      {"measurement": "2/5 kcat/Km ratio", "setting": "[4]; [9]", "result": "1.43 ± 0.07"},
      {"measurement": "kcat", "setting": "[5]", "result": ">40", "unit": "s⁻¹"},
      {"measurement": "2/5 kcat/Km ratio", "setting": "[5]; [9]", "result": "0.52 ± 0.07"},
      {"measurement": "kcat", "setting": "[6]; [10]", "result": ">4", "unit": "s⁻¹"},
      {"measurement": "2/5 kcat/Km ratio", "setting": "[6]; [9]", "result": "0.13 ± 0.01"},
      {"measurement": "kcat", "setting": "[7]", "result": ">0.005", "unit": "s⁻¹"},
      {"measurement": "2/5 kcat/Km ratio", "setting": "[7]; [9]", "result": "5.8 ± 0.2"},
      {"measurement": "kcat", "setting": "[8]", "result": ">0.02", "unit": "s⁻¹"},
      {"measurement": "2/5 kcat/Km ratio", "setting": "[8]; [9]", "result": "1.23 ± 0.02"}
    ]},
    {"molecule": "CC[C@H](C)[C@H](NC(=O)[C@H](C)NC(=O)[C@H](CCC(=O)O)NC(=O)[C@@H](N)CC(=O)O)C(=O)N[C@@H](Cc1ccc(O)cc1)C(=O)N[C@@H](C)C(=O)N[C@H](C(=O)N[C@H](C(=O)N[C@@H](C)C(=O)NCC(=O)NCC(=O)N[C@@H](CCCCNC(=O)CCCC[C@@H]1SC[C@@H]2NC(=O)N[C@@H]21)C(=O)NCC(=O)NCC(N)=O)C(C)C)[C@@H](C)O", "note": "[Peptide 5] (H-DEAIYATVAGGK(Biotin)GG-NH2)", "values": [
      {"measurement": "phosphorylation by the panel of PTKs", "setting": "[1]", "result": "phosphorylated by every PTK tested"},
      {"measurement": "average phosphorylation across the kinase panel", "setting": "[1]", "result": "highest average rate of phosphorylation across the entire panel of kinases; also recorded: highest phosphorylation averaged across the kinase panel"},
      {"measurement": "kcat", "setting": "[2]", "result": "0.26 ± 0.08", "unit": "s⁻¹"},
      {"measurement": "kcat", "setting": "[3]; [10]", "result": ">0.1", "unit": "s⁻¹"},
      {"measurement": "kcat", "setting": "[4]", "result": "0.014 ± 0.004", "unit": "s⁻¹"},
      {"measurement": "kcat", "setting": "[5]", "result": ">2", "unit": "s⁻¹"},
      {"measurement": "kcat", "setting": "[6]; mean ± sem of fits", "result": "16.5 ± 3.5", "unit": "s⁻¹"},
      {"measurement": "kcat", "setting": "[7]", "result": ">0.001", "unit": "s⁻¹"},
      {"measurement": "kcat", "setting": "[8]", "result": ">0.02", "unit": "s⁻¹"}
    ]},
    {"molecule": "DEPIYDTVEGGKbiotinGG (DEPIYDTVEGGK(Biotin)GG) [Peptide 6]", "values": [
      {"measurement": "phosphorylation by the panel of PTKs", "setting": "[1]", "result": "phosphorylated by every PTK tested"}
    ]}
  ]
}
